According to patent publication US11786447B2, “Conditioner composition comprising a chelant” (The Procter & Gamble Company, priority 2016, dated 2023):

Test: Measurement of copper on hair after shampoo/rinse-off conditioner wash cycles (ICP-OES)
Conditions: picolinic acid in the rinse-off conditioner; after 20 clarifying shampoo/rinse-off conditioner cycles
Method: All testing are performed on colored hair switches (see Method of Measurement of copper on hair below) weighing approximately 4.0 grams and having a length of approximately 6 inches. The hair switches are commercially available from IHIP (International Hair Importers). Three hair switches per shampoo composition are used. An amount of […] of shampoo is spread via a syringe onto separate hair switch. That is, the dosage is 0.10 g of shampoo per g of hair. Each application consists of adding shampoo to the hair, milking for 30 seconds followed by rinsing for 30 seconds. Shampoo is then reapplied (0.1 g/g), milked for 30 seconds and rinsed for 30 seconds. Excess water is squeezed from the hair switches and left to air dry or treated with a rinse-off conditioner and/or a leave-on treatment composition. This protocol is repeated for a number of times/cycles (as indicated in the tables below, which describe the details of hair treatments).
All testing are performed on colored hair switches (see Method of Measurement of copper on hair below) weighing approximately 4.0 grams and having a length of approximately 6 inches. […]
Samples of 100 mg of hair were digested overnight with 2 ml of high purity concentrated nitric acid. […] Copper content of the hair switches was determined by inductively coupled plasma atomic spectroscopy (ICP-OES)). For each leg, 3 different samples were analyzed. […]

O=C(O)c1ccccn1 [picolinic acid]
Removal of copper from hair compared to clarifying shampoo/control rinse-off conditioner: effective removal of copper from hair
